pIC50: −log10 of the molar value. Like-named read-outs stand apart in the source and are kept apart here.
Tests used:
Assay type in all cases: cell-based
[1] = system: T47D (PI3Kα H1047R mutant) cells; experiment: Inhibition of pAKT formation, alphaLISA SureFire Ultra AKT 1/2/3 (pS473), T47D cells; conditions: Homo sapiens, T47D, T47D (PI3Kα H1047R mutant) cells; inhibition of pAKT (pS473) formation; approximately one hour or 24 hours treatment; read-out: T47D pAKT (H1047R mutant) IC50
Method: The ability of a compound of Formula (I) to inhibit the formation of pAKT was measured using alphaLISA Surefire Ultra AKT 1/2/3 (pS473) Assay Kit (#ALSU-PAKT-B50K) was obtained from Perkin Elmer (Waltham, MA).
To prepare assay plates for pAKT alphaLISA assays, cells were trypsinized, resuspended in fresh media, and viable cells were counted utilizing trypan blue exclusion. Prior to seeding, cells were washed with PBS and resuspended in HBSS (Gibco, #14025092). T47D (12,000/w), SKBR3(12,000/w), or MKN1(24,000/w) cells were seeded at 12 μl per well in a solid white flat bottom 384 cell culture plate (Perkin Elmer #6007680).
Immediately after seeding, cells were dosed using an Echo Liquid Handler (Beckman Coulter) with compounds at a […] starting concentration and serially diluted (1:4) for a total of 10 concentrations. […] Cells were incubated with the compounds (solubilized in DMSO) for approximately one hour or 24 hours at 37° C. After one hour (or 24 hours) of treatment, cells were lysed with 3 μl of the 5× lysis buffer (provided and incubated at room temperature for 15 min on a microtiter plate shaker). Once cells were sufficiently lysed, 7.5 μl of the acceptor bead mix (made using the manufacturers recommended dilutions) was added to each well and left on the microtiter plate shaker for 1 min prior to incubating plates at room temperature for one hour, in the absence of light. After one hour of incubation with the acceptor bead mix, 7.5 μl of the donor bead mix (made using the manufacturers recommended dilutions) was added to each well and left on the microtiter plate shaker for 1 min prior to incubating plates at room temperature overnight in the absence of light. Plates were then imaged the following day using a CLARIOstar microplate reader (BMG Labtech, Germany).
Percent of control values were calculated by subtracting the average signal from the positive control (alpelisib) treated wells from all treated wells (including DMSO control wells) and then divided by the average signal from the vehicle DMSO treated control wells. Percent of vehicle control values were plotted as log (inhibitor) vs. response-Variable slope (four parameters) for curve fitting and IC50 values were determined using XLfit.
Key: N.D. =not determined
Inhibition of pAKT in T47D (PI3Kα H1047R mutant) cells by Exemplary Compounds of Formula (I)

[2] = system: T47D (PI3Kα H1047R mutant) cells; experiment: CellTiter-Glo 2.0 luminescent cell viability assay, 72 hours, T47D cells; conditions: T47D (PI3Kα H1047R mutant) cells, CellTiter-Glo, approximately 72 hours, read-out: T47D (H1047R mutant) Viability IC50
Summary of the method: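 Viability was measured by CellTiter-Glo 2.0 luminescence after approximately 72 h of compound exposure at 37° C. Plating was 1000 cells per well the day before dosing, with ten 1:4 dilutions from a 10 µM top concentration. Values as percent of vehicle were fitted by variable-slope log(inhibitor) regression to give IC50.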

[3] = system: SKBR3 (PI3Kα wild type) cells; experiment: CellTiter-Glo 2.0 luminescent cell viability assay, 72 hours, SKBR3 cells; conditions: SKBR3 (PI3Kα wild type) cells, CellTiter-Glo, approximately 72 hours, read-out: SKBR3 (WT) Viability IC50
Summary of the method: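 Viability measured via CTG luminescence following roughly 72 hours of compound exposure at 37° C. Dosing used a 10 um starting concentration diluted 1:4 over 10 points; percent-of-vehicle data fitted with a variable-slope four-parameter model for IC50.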

| Structure (SMILES) | pIC50 [1] | pIC50 ([2]; Homo sapiens, T47D, 72 h) | pIC50 ([3]; Homo sapiens, SK-BR-3, 72 h) | pIC50 [2] | pIC50 [3] |
| --- | --- | --- | --- | --- | --- |
| Cc1cc([C@@H](C)Nc2ccccc2C(=O)O)c2nc(N3CC4CC3C4)c(C#N)c(=O)n2c1 [Example 10-76, (R)-2-((1-(2-(2-azabicyclo[2.1.1]hexan-2-yl)-3-cyano-7-methyl-4-oxo-4H-pyrido[1,2-a]pyrimidin-9-yl)ethyl)amino)benzoic acid] | 8.77 | 6.96 | < 5.00 | – | – |
| Cc1cc([C@@H](C)Nc2ccccc2C(=O)O)c2nc(N3CC4CC(C4)C3)c(C)c(=O)n2c1 [Example 10-124, (R)-2-((1-(2-(3-azabicyclo[3.1.1]heptan-3-yl)-3,7-dimethyl-4-oxo-4H-pyrido[1,2-a]pyrimidin-9-yl)ethyl)amino)benzoic acid] | 8.80 | 6.98 | < 5.00 | – | – |
| Cc1cc([C@@H](C)Nc2ccccc2C(=O)O)c2nc(N3CCN(c4ccc(C#N)cc4)CC3C)c(C)c(=O)n2c1 (stereo partly drawn) [Example 10-20, 2-(((1R)-1-(2-(4-(4-cyanophenyl)-2-methylpiperazin-1-yl)-3,7-dimethyl-4-oxo-4H-pyrido[1,2-a]pyrimidin-9-yl)ethyl)amino)benzoic acid] | 8.80 | – | – | 7.37 | 5.13 |
| Cc1cc([C@@H](C)Nc2ccc(Cl)nc2C(=O)O)c2nc(N3Cc4ccccc4C3)c(C)c(=O)n2c1 [Example 10-30, (R)-6-chloro-3-((1-(2-(isoindolin-2-yl)-3,7-dimethyl-4-oxo-4H-pyrido[1,2-a]pyrimidin-9-yl)ethyl)amino)picolinic acid] | 8.44 | – | – | 7.26 | < 5.00 |
| Cc1cc([C@@H](C)Nc2ccccc2C(=O)O)c2nc(N3CCN(c4cccnc4C#N)CC3)c(C)c(=O)n2c1 [Example 10-131, (R)-2-((1-(2-(4-(2-cyanopyridin-3-yl)piperazin-1-yl)-3,7-dimethyl-4-oxo-4H-pyrido[1,2-a]pyrimidin-9-yl)ethyl)amino)benzoic acid] | 8.73 | 7.31 | < 5.00 | – | – |
| Cc1cc([C@@H](C)Nc2ccccc2C(=O)O)c2nc(N3CCC4(CC3)C(F)(F)C4(F)F)c(C#N)c(=O)n2c1 [Example 10-81, (R)-2-((1-(3-cyano-7-methyl-4-oxo-2-(1,1,2,2-tetrafluoro-6-azaspiro[2.5]octan-6-yl)-4H-pyrido[1,2-a]pyrimidin-9-yl)ethyl)amino)benzoic acid] | 8.60 | 7.11 | < 5.00 | – | – |
| Cc1cc([C@@H](C)Nc2ccccc2C(=O)O)c2nc(N3CCN(c4ccc(C#N)cc4C)CC3)c(C#N)c(=O)n2c1 [Example 10-101, (R)-2-((1-(3-cyano-2-(4-(4-cyano-2-methylphenyl)piperazin-1-yl)-7-methyl-4-oxo-4H-pyrido[1,2-a]pyrimidin-9-yl)ethyl)amino)benzoic acid] | 8.24 | 7.06 | < 5.00 | – | – |
| Cc1cc([C@@H](C)Nc2ccccc2C(=O)O)c2nc(NCC3CC3)c(C#N)c(=O)n2c1 [Example 10-15, (R)-2-((1-(3-cyano-2-((cyclopropylmethyl)amino)-7-methyl-4-oxo-4H-pyrido[1,2-a]pyrimidin-9-yl)ethyl)amino)benzoic acid] | 9.07 | 7.44 | < 5.00 | – | – |
| Cc1cc([C@@H](C)Nc2ccccc2C(=O)O)c2nc(N3CCC4(CC4)C(F)(F)C3)c(C#N)c(=O)n2c1 [Example 10-108, (R)-2-((1-(3-cyano-2-(4,4-difluoro-6-azaspiro[2.5]octan-6-yl)-7-methyl-4-oxo-4H-pyrido[1,2-a]pyrimidin-9-yl)ethyl)amino)benzoic acid] | 8.54 | 7.03 | < 5.00 | – | – |
| Cc1cc([C@@H](C)Nc2ccccc2C(=O)O)c2nc(N3CCN(C(=O)C4CCCC4)CC3)c(C)c(=O)n2c1 [Example 10-84, (R)-2-((1-(2-(4-(cyclopentanecarbonyl)piperazin-1-yl)-3,7-dimethyl-4-oxo-4H-pyrido[1,2-a]pyrimidin-9-yl)ethyl)amino)benzoic acid] | 8.53 | 7.10 | < 5.00 | – | – |
| Cc1cc([C@@H](C)Nc2ccccc2C(=O)O)c2nc(N3CCN(c4ccccc4C#N)CC3)c(C)c(=O)n2c1 [Example 10-45, (R)-2-((1-(2-(4-(2-cyanophenyl)piperazin-1-yl)-3,7-dimethyl-4-oxo-4H-pyrido[1,2-a]pyrimidin-9-yl)ethyl)amino)benzoic acid] | 8.53 | 7.19 | < 5.00 | – | – |
| Cc1cc([C@@H](C)Nc2ccccc2C(=O)O)c2nc(NC3CCC3)c(C#N)c(=O)n2c1 [Example 10-90, (R)-2-((1-(3-cyano-2-(cyclobutylamino)-7-methyl-4-oxo-4H-pyrido[1,2-a]pyrimidin-9-yl)ethyl)amino)benzoic acid] | 9.22 | 7.08 | < 5.00 | – | – |
| Cc1cc([C@@H](C)Nc2ccccc2C(=O)O)c2nc(N3CCN(c4ccccc4)CC3)c(C#N)c(=O)n2c1 [Example 10-98, (R)-2-((1-(3-cyano-7-methyl-4-oxo-2-(4-phenylpiperazin-1-yl)-4H-pyrido[1,2-a]pyrimidin-9-yl)ethyl)amino)benzoic acid] | 8.67 | 7.07 | < 5.00 | – | – |
| Cc1cc([C@@H](C)Nc2ccccc2C(=O)O)c2nc(N3CCN(C(=O)c4ccccc4)CC3)c(C)c(=O)n2c1 [Example 10-117, (R)-2-((1-(2-(4-benzoylpiperazin-1-yl)-3,7-dimethyl-4-oxo-4H-pyrido[1,2-a]pyrimidin-9-yl)ethyl)amino)benzoic acid] | 8.67 | 7.00 | 5.43 | – | – |
| Cc1cc([C@@H](C)Nc2ccccc2C(=O)O)c2nc(N3CC(F)(F)C(F)(F)C3)c(C)c(=O)n2c1 [Example 10-51, (R)-2-((1-(3,7-dimethyl-4-oxo-2-(3,3,4,4-tetrafluoropyrrolidin-1-yl)-4H-pyrido[1,2-a]pyrimidin-9-yl)ethyl)amino)benzoic acid] | 8.72 | 7.17 | < 5.00 | – | – |
| Cc1cc([C@@H](C)Nc2ccccc2C(=O)O)c2nc(N3CC[C@@H]3C)c(C#N)c(=O)n2c1 (single isomer, unassigned) [Example 10-95] | 8.86 | 6.96 | < 5.00 | – | – |
| Cc1cc([C@@H](C)Nc2ccccc2C(=O)O)c2nc(N3CCC(F)(F)CC3)c(Cl)c(=O)n2c1 [Example 10-114, (R)-2-((1-(3-chloro-2-(4,4-difluoropiperidin-1-yl)-7-methyl-4-oxo-4H-pyrido[1,2-a]pyrimidin-9-yl)ethyl)amino)benzoic acid] | 8.59 | 7.01 | < 5.00 | – | – |
| Cc1cc([C@@H](C)Nc2ccccc2C(=O)O)c2nc(N3CCN(c4ccc(C#N)cc4)[C@@H](C)C3)c(C)c(=O)n2c1 [Example 10-21, 2-(((R)-1-(2-((S)-4-(4-cyanophenyl)-3-methylpiperazin-1-yl)-3,7-dimethyl-4-oxo-4H-pyrido[1,2-a]pyrimidin-9-yl)ethyl)amino)benzoic acid] | 8.63 | 7.34 | 5.09 | – | – |
| Cc1cc([C@@H](C)Nc2ccccc2C(=O)O)c2nc(N3CCN(c4ccc(C#N)cc4)[C@@H](C)C3)c(C#N)c(=O)n2c1 [Example 10-41, 2-(((R)-1-(3-cyano-2-((S)-4-(4-cyanophenyl)-3-methylpiperazin-1-yl)-7-methyl-4-oxo-4H-pyrido[1,2-a]pyrimidin-9-yl)ethyl)amino)benzoic acid] | 8.14 | 7.22 | < 5.00 | – | – |
| Cc1cc([C@@H](C)Nc2ccccc2C(=O)O)c2nc(N3CCCCC3)c(F)c(=O)n2c1 [Example 10-79, (R)-2-((1-(3-fluoro-7-methyl-4-oxo-2-(piperidin-1-yl)-4H-pyrido[1,2-a]pyrimidin-9-yl)ethyl)amino)benzoic acid] | 9.52 | 7.11 | < 5.00 | – | – |

— US20260078120A1, “SUBSTITUTED PYRIDOPYRIMIDINONES” (MIRATI THERAPEUTICS, INC., priority 2022, published 2026)
